Measured values: patent US12448383B2, “Compounds and methods for treatment of viral infections” (priority 2022, dated 2025)
Where two headings read alike, the source gives them in different places.

Assays:
[1] = system: Respiratory syncytial virus recombinant with luciferase (RSV-Luc5) in HEp-2 cells; assay: microbe, parasite or virus in culture; type: cell-based; details: human respiratory syncytial virus
[2] = system: Caco-2 cells (clone C2BBe1); assay: CACO-2 permeability; type: in vitro ADME; parameters: unit not given here; details: for DM Caco2 A to B: apical to basolateral, donor pH 6.5, receiver pH 7.4; for DM Caco2 B to A: basolateral to apical
Procedure, shortened: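 A-to-B and B-to-A flux measured by LC-MS/MS from receiver samples taken at 1 and 2 h, with donor sampled at 0 and 2 h and recovery checked. Buffers: pH 6.5 HBSS with 200 μM BNPP on the donor side, pH 7.4 with BSA on the receiver side. Monolayers were 21-day cultures, TEER-verified, in duplicate wells.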

GI S9 stability = type: in vitro ADME; details: human, s9, pH 7.4
[3] = HEp-2, 72 h, read-out: RSV Hep2 EC50

SMILES: CC12CCC(C1)C(C)(C)C2OC(=O)OC[C@H]1O[C@@](C#N)(c2ccc3c(N)ncnn23)[C@H](O)[C@@H]1O (mixture of isomers) [Compound 48, ((2R,3S,4R,5R)-5-(4-aminopyrrolo[2,1-f][1,2,4]triazin-7-yl)-5-cyano-3,4-dihydroxytetrahydrofuran-2-yl)methyl (1,3,3-trimethylbicyclo[2.2.1]heptan-2-yl) carbonate]
- EC50 [1, 3]: 2350 nM
- DM Caco2 A to B [2]: 6.19
- DM Caco2 B to A [2]: 12.52

SMILES: CC(C)OC(=O)OC[C@H]1O[C@@](C#N)(c2ccc3c(N)ncnn23)[C@H](O)[C@@H]1O [Compound 4, [(2R,3S,4R,5R)-5-(4-aminopyrrolo[2,1-f][1,2,4]triazin-7-yl)-5-cyano-3,4-dihydroay-tetrahydrofuran-2-yl]methyl isopropyl carbonate]
- EC50 [1, 3]: 606 nM
- DM Caco2 A to B [2]: 0.545
- DM Caco2 B to A [2]: 5.29
- half-life at 2 µM (GI S9 stability): 4.21 h

SMILES: CCOC(=O)OC[C@H]1O[C@@](C#N)(c2ccc3c(N)ncnn23)[C@H](O)[C@@H]1O [Compound 6, ((2R,3S,4R,5R)-5-(4-aminopyrrolo[2,1-f][1,2,4]triazin-7-yl)-5-cyano-3,4-dihydroxytetrahydrofuran-2-yl)methyl ethyl carbonate]
- EC50 [1, 3]: 1120 nM
- DM Caco2 A to B [2]: 0.21
- DM Caco2 B to A [2]: 2.77
- half-life at 2 µM (GI S9 stability): 11.9 h

SMILES: CC(C)(C)OC(=O)OC[C@H]1O[C@@](C#N)(c2ccc3c(N)ncnn23)[C@H](O)[C@@H]1O [Compound 46, ((2R,3S,4R,5R)-5-(4-aminopyrrolo[2,1-f][1,2,4]triazin-7-yl)-5-cyano-3,4-dihydroxytetrahydrofuran-2-yl)methyl tert-butyl carbonate]
- EC50 [1, 3]: 2320 nM
- DM Caco2 A to B [2]: 0.76
- DM Caco2 B to A [2]: 10.66
- half-life at 2 µM (GI S9 stability): 7.32 h

SMILES: CC1(OC(=O)OC[C@H]2O[C@@](C#N)(c3ccc4c(N)ncnn34)[C@H](O)[C@@H]2O)CCCCC1 [Compound 47, ((2R,3S,4R,5R)-5-(4-aminopyrrolo[2,1-f][1,2,4]triazin-7-yl)-5-cyano-3,4-dihydroxytetrahydrofuran-2-yl)methyl (1-methylcyclohexyl) carbonate]
- EC50 [1, 3]: 2330 nM
- DM Caco2 A to B [2]: 1.68
- DM Caco2 B to A [2]: 11.38

SMILES: CC(C)(OC(=O)OC[C@H]1O[C@@](C#N)(c2ccc3c(N)ncnn23)[C@H](O)[C@@H]1O)c1ccncc1 [Compound 49, ((2R,3S,4R,5R)-5-(4-aminopyrrolo[2,1-f][1,2,4]triazin-7-yl)-5-cyano-3,4-dihydroxytetrahydrofuran-2-yl)methyl (2-(pyridin-4-yl)propan-2-yl) carbonate]
- EC50 [1, 3]: > 50000 nM
- DM Caco2 A to B [2]: 0.13
- DM Caco2 B to A [2]: 3.48

SMILES: CC1(C)[C@@H]2CC[C@@]1(C)[C@@H](OC(=O)OC[C@H]1O[C@@](C#N)(c3ccc4c(N)ncnn34)[C@H](O)[C@@H]1O)C2 [Compound 51, ((2R,3S,4R,5R)-5-(4-aminopyrrolo[2,1-f][1,2,4]triazin-7-yl)-5-cyano-3,4-dihydroxytetrahydrofuran-2-yl)methyl ((1R,2S,4R)-1,7,7-trimethylbicyclo[2.2.1]heptan-2-yl) carbonate]
- EC50 [1, 3]: 2140 nM
- DM Caco2 A to B [2]: 4.35
- DM Caco2 B to A [2]: 17.19

SMILES: CC(C)C(=O)O[C@H]1[C@@H](OC(=O)C(C)C)[C@](C#N)(c2ccc3c(N)ncnn23)O[C@@H]1COC(=O)OC(C)(C)C [Compound 58, (2R,3R,4R,5R)-2-(4-aminopyrrolo[2,1-f][1,2,4]triazin-7-yl)-5-(((tert-butoxycarbonyl)oxy)methyl)-2-cyanotetrahydrofuran-3,4-diyl bis(2-methylpropanoate)]
- EC50 [1, 3]: 1360 nM
- DM Caco2 A to B [2]: 5.67
- DM Caco2 B to A [2]: 6.86

SMILES: CC(C)OC(=O)OC[C@H]1O[C@@](C#N)(c2ccc3c(N)ncnn23)[C@H](OC(=O)C(C)C)[C@@H]1OC(=O)C(C)C [Compound 59, (2R,3R,4R,5R)-2-(4-aminopyrrolo[2,1-f][1,2,4]triazin-7-yl)-2-cyano-5-(((isopropoxycarbonyl)oxy)methyl)tetrahydrofuran-3,4-diyl bis(2-methylpropanoate)]
- EC50 [1, 3]: 786 nM
- DM Caco2 A to B [2]: 11.61
- DM Caco2 B to A [2]: 17.7
- half-life at 2 µM (GI S9 stability): 0.0239 h

SMILES: CC(=O)O[C@H]1[C@@H](OC(C)=O)[C@](C#N)(c2ccc3c(N)ncnn23)O[C@@H]1COC(=O)OC(C)C [Compound 65, (2R,3R,4R,5R)-2-(4-aminopyrrolo[2,1-f][1,2,4]triazin-7-yl)-2-cyano-5-(((isopropoxycarbonyl)oxy)methyl)tetrahydrofuran-3,4-diyl diacetate]
- EC50 [1, 3]: 1080 nM
- DM Caco2 A to B [2]: 3.07
- DM Caco2 B to A [2]: 7.23

SMILES: COC(=O)OC[C@H]1O[C@@](C#N)(c2ccc3c(N)ncnn23)[C@H](OC(C)=O)[C@@H]1OC(C)=O [Compound 128, (2R,3R,4R,5R)-2-(4-aminopyrrolo[2,1-f][1,2,4]triazin-7-yl)-2-cyano-5-(((methoxycarbonyl)oxy)methyl)tetrahydrofuran-3,4-diyl diacetate]
- DM Caco2 A to B [2]: 3.35
- DM Caco2 B to A [2]: 5.69

SMILES: CCOC(=O)OC[C@H]1O[C@@](C#N)(c2ccc3c(N)ncnn23)[C@H](OC(C)=O)[C@@H]1OC(C)=O [Compound 129, (2R,3R,4R,5R)-2-(4-aminopyrrolo[2,1-f][1,2,4]triazin-7-yl)-2-cyano-5-(((ethoxycarbonyl)oxy)methyl)tetrahydrofuran-3,4-diyl diacetate]
- DM Caco2 A to B [2]: 3.505
- DM Caco2 B to A [2]: 6.635

SMILES: CC(C)OC(=O)Nc1ncnn2c([C@]3(C#N)O[C@H](COC(=O)OC(C)C)[C@@H](O)[C@H]3O)ccc12 [Compound 137, isopropyl (7-((2R,3R,4S,5R)-2-cyano-3,4-dihydroxy-5-(((isopropoxycarbonyl)oxy)methyl)tetrahydrofuran-2-yl)pyrrolo[2, i-f][1,2,4]triazin-4-yl)carbamate]
- EC50 ([1]; HEp-2, read-out: EC50 RSVFluc-Hep2 384 V2): > 50000 nM
- logD (physchem): 2
- DM Caco2 A to B [2]: 0.98
- DM Caco2 B to A [2]: 11.37
